How the values were obtained:
[1] = tested on: A431; assay: Growth of cancer cells (Cell Titer-Glo viability), A431; format: cell-based; details: Homo sapiens, A-431; A431 (wild-type EGFR), 72 hrs; read-out: GI50
[2] = tested on: EGFR protein (EGFR L858R/T790M, H1975); assay: Effect on signaling pathway in cells, H1975; format: cell-based, human; details: 4 h
Excerpt: In four cell lines (all purchased from ATCC) including non-small cell lung cancer cell line A549 (expressing wild-type EGFR gene), non-small cell lung cancer cell line H1975 (expressing EGFR L858R/T790M double mutant gene), non-small cell lung cancer cell line H3255 (expressing EGFR L858R mutant gene) and non-small cell lung cancer cell line PC-9 (expressing EGFR delE746_A750 mutant gene), the effect of Compound 1 on EGFR or other protein kinases related to signaling pathways of EGFR such as Stat3, AKT, ErK, eIF4E, 4EBP1, P70S6K was assessed by assaying a number of cellular biochemical and functional endpoints. […] The effect of Compound 1 on phosphorylation of Stat3Y705, AKT T308, AKT 5473, Erk T202/204, EGFR Y1068, P70S6K Thr389, eIF4E Ser209, Erk T202/204, 4EBP1 (Thr37/46) in these cell lines was assayed (FIGS. 1a to 1d).
In non-small cell lung cancer cell line H1975 (expressing EGFR L858R/T790M double mutant gene), the effect of Compound 10 on EGFR and other protein kinases that are closely related to the signaling pathways of EGFR such as Stat3, AKT, ErK, eIF4E, 4EBP1, P70S6K in this cell was assessed by assaying a number of cellular biochemical and functional endpoints. […] The effect of Compound 10 on phosphorylation of Stat3Y705, AKT T308, AKT S473, Erk T202/204, EGFR Y1068, P70S6K Thr389, eIF4E Ser209, Erk T202/204, 4EBP1 (Thr37/46) in this cell line was assayed (FIG. 1g).

[3] = tested on: BaF3; assay: Cell growth (Cell Titer-Glo viability), BaF3; format: cell-based; details: BaF3 mouse primary B cell, 72 hrs
[4] = tested on: H1975; assay: Effect on cell apoptosis (Western Blot, PARP and Caspase 3 cleavage), H1975; format: cell-based, human; details: H1975 (EGFR L858R/T790M), 24 hours
Excerpt: In order to confirm whether the death of cells is through apoptosis or necrosis after administration of drugs, non-small cell lung cancer cell A549 (expressing wild-type EGFR gene), non-small cell lung cancer cell line H1975 (expressing EGFR L858R/T790M double mutant gene), non-small cell lung cancer cell line H3255 (expressing EGFR L858R mutant gene), non-small cell lung cancer cell line H3122 (expressing ALK gene) cell line, and non-small cell lung cancer cell line PC-9 (expressing EGFR delE746_A750 mutant gene) were tested for effect of Compound 1 on cleavage of poly ADP-ribose polymerase PARP which is a DNA repair enzyme and Caspase 3, which were closely related to cell apoptosis. […] Western Blot was used to detect the effect of various concentrations of drugs at various time points on cleavage of poly ADP-ribose polymerase PARP which is a DNA repair enzyme and Caspase 3.

[5] = tested on: A549; assay: Growth of cancer cells (Cell Titer-Glo viability), A549; format: cell-based; details: Homo sapiens; A549 (wild-type EGFR), 72 hrs
[6] = tested on: BaF3-TEL-ALK; assay: Cell growth (Cell Titer-Glo viability), BaF3-TEL-ALK; format: cell-based; details: Mus musculus; BaF3-TEL-ALK (stably expressing ALK kinase), 72 hrs
Method in brief: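 Antiproliferative assay in engineered BaF3 lines made IL-3-independent by retroviral TEL-fused kinase constructs, and in cancer cell lines HCC827 (EGFR del19) and NCI-H3255 (EGFR L858R). Viable cells quantified by Cell Titer-Glo luminescence.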

Row | GI50 [1] [µM] | GI50 [3] [µM] | GI50 [5] [µM] | GI50 [6] [µM] | Compound | concentration able to completely inhibit the phosphorylation of EGFR protein (also affects AKT and ERK phosphorylation) [2] [µM] | concentration at which cleavage of PARP and Caspase 3 could be observed [4] [µM]
1 | 0.062 | 1.4 | 0.41 | < 0.0003 | C=CC(=O)Nc1cc(Nc2ncc(Cl)c(Nc3ccccc3S(=O)(=O)C(C)C)n2)c(OC)cc1N1CCN(CC)CC1 [Compound 1, N-(5-(5-chloro-4-(2-(isopropylsulfonyl)phenylamino)pyrimidin-2-ylamino)-2-(4-ethylpiperazin-1-yl)-4-methoxyphenyl)acrylamide] | 0.03 | 0.3
2 | 0.17 | 1.2 | 0.51 | 0.003 | C=CC(=O)Nc1cc(Nc2ncc(Cl)c(Nc3ccccc3S(=O)(=O)C(C)C)n2)c(OC)cc1N1CCCN(C)CC1 [Compound 10, N-(5-(5-chloro-4-(2-(isopropylsulfonyl)phenylamino)pyrimidin-2-ylamino)-4-methoxy-2-(4-methyl-1,4-homopiperazin-1-yl)phenyl)acrylamide] | 0.03 | 0.3

From patent US10350210B2, “EGFR and ALK dual inhibitor” (PRECEDO PHARMACEUTICALS CO., LTD, priority 2015, dated 2019)
